Laboratory results published in ChEMBL document CHEMBL1201862, “PubChem BioAssay data set” (2004).
Each block holds one compound with its values, some of them ahead of it. The source made the active and inactive calls.

What was measured:
[1] = target: T1, Oxysterols receptor LXR-beta (Homo sapiens, UniProt P55055); assay type: functional, cell-based
T1 sequence (P55055 whole entry): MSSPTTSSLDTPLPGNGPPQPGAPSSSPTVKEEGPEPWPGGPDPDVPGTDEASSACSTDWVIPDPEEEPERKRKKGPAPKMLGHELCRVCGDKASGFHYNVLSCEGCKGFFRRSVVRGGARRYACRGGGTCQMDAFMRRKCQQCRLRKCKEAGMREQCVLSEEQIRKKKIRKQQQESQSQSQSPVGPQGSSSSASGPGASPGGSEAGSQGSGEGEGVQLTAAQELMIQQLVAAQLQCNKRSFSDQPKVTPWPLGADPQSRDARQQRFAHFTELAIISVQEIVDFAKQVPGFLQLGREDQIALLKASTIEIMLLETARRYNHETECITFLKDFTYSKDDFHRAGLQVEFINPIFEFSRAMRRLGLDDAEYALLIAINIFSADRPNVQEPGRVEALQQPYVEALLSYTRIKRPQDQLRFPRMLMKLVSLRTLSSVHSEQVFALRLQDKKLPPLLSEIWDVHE

[2] = viability of PTEN-deleted HCT116 cells – cell-based, HCT116 PTEN knockout, dose response (AID 1047); assay type: functional;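 note: HCT116 colon tumor cells with PTEN knocked out; cells exposed to compound for 60 hours before readout; potency for loss of cell viability measured by luminescence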
Estrogen receptor beta [3] = target: T2, Estrogen receptor beta (Homo sapiens, UniProt Q92731); experiment: blockers of SRC-3 recruitment to ERβ – biochemical, ELISA, streptavidin-HRP readout, orthogonal assay, confirmation (AID 1060)
Estrogen receptor beta [4] = target: T2, Estrogen receptor beta
[5] = viability of HCT116 lacking mutant beta-catenin – cell-based, human colon tumor, dose response (AID 1045); assay type: functional;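 note: HCT116 colon tumor cells with beta catenin knocked out; cells exposed to compound for 60 hours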
Large T antigen = Large T antigen (Simian virus 40, UniProt P03070); assay type: functional, Betapolyomavirus macacae;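 note: Confirmatory-stage PubChem screen for compounds that inhibit SV40 T antigen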
[6] = cytotoxicity in MITF-independent A375 cells – cell-based, CellTiter-Glo luminescence, dry powder, set 4, counter-screen for MITF inhibitor project, dose response (AID 624364); assay type: functional; settings: A-375;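 note: A375 melanoma cells are MITF independent so this is a counter screen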
[7] = viability loss in MITF-independent A375 cells – cell-based, CellTiter-Glo luminescence, dry powder, set 2, counter-screen for MITF inhibitor project, dose response (AID 624489); assay type: functional; settings: A-375;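 note: actives are compounds lowering A375 viability meaning general cytotoxicity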
cells [8] = experiment: cells
[9] = DRD fibroblast viability loss – cell-based, non-viral oncogenic, luminescence, dose response (AID 1934); assay type: functional; settings: Homo sapiens
BJ [10] = experiment: BJ-TERT-LT-ST fibroblast viability loss – cell-based, RAS-independent, luminescence, dose response (AID 1935); assay type: functional; settings: Homo sapiens;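 note: BJ fibroblasts immortalized with TERT plus LT and ST oncogenes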
BJ [11] = experiment: cells; assay type: functional, cell-based; settings: Homo sapiens
BJ [12] = experiment: BJ-TERT fibroblast viability loss – cell-based, RAS-independent, luminescence, dose response (AID 1933); assay type: functional; settings: Homo sapiens
[13] = target: T1, Oxysterols receptor LXR-beta; assay type: functional, cell-based; remark: listed apart in the source
cells [14] = experiment: cells; remark: listed apart in the source
[15] = target: T3, Mannose-6-phosphate isomerase (Homo sapiens, UniProt P34949); experiment: MPI inhibition at elevated mannose 6-phosphate – biochemical, fluorescence intensity, high mannose 6-phosphate, primary screen (AID 1220)
T3 sequence (P34949 whole entry): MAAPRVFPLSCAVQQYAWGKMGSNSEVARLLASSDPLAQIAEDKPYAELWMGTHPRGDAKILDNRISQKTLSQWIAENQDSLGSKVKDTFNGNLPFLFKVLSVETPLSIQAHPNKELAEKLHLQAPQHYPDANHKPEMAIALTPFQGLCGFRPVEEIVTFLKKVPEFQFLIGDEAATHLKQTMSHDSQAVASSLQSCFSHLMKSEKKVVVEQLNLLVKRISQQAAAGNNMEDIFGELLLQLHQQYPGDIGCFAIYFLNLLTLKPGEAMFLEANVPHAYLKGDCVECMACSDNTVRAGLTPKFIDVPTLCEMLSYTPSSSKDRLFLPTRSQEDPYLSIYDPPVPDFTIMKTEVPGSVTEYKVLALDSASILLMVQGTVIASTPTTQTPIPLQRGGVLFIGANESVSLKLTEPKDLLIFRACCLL

H9c2 = experiment: cells; assay type: functional, cell-based; settings: Rattus norvegicus, H9c2, Myocardium;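 note: confirmatory concentration-response retest of ultra-high-throughput screening hits for modulation of myocardial damage; cell death induced by hydrogen peroxide oxidative stress; compound pretreatment for 60 min then peroxide exposure for 2 h; potency is for protecting the cells against peroxide damage rather than for killing them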
[16] = target: T4, Rac GTPase-activating protein 1 (Homo sapiens, UniProt Q9H0H5); experiment: blockers of MgcRacGAP-driven Rac1 GTP hydrolysis – biochemical, ADP Hunter fluorescence, primary and confirmatory, confirmation (AID 624330); assay type: functional
T4 sequence (Q9H0H5 whole entry): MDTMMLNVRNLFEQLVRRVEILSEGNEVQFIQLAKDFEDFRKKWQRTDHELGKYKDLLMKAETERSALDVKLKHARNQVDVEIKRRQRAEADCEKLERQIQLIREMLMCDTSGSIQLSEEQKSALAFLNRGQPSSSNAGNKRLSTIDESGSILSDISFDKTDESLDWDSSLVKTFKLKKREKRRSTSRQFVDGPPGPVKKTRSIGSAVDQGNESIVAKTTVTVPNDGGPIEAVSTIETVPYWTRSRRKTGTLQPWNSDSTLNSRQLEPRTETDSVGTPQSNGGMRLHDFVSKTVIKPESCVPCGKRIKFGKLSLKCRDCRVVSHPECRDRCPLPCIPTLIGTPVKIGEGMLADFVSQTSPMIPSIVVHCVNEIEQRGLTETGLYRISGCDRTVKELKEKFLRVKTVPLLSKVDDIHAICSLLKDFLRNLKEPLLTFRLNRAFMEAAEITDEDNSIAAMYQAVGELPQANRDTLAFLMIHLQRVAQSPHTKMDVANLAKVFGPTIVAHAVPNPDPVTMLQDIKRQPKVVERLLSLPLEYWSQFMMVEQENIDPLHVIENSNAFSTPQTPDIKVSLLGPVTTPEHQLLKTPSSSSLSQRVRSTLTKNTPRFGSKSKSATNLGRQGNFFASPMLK

Estrogen receptor = target: T5, Estrogen receptor (Homo sapiens, UniProt P03372);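 note: potency for inhibiting coactivator peptide recruitment to the receptor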
T5 sequence (P03372 whole entry): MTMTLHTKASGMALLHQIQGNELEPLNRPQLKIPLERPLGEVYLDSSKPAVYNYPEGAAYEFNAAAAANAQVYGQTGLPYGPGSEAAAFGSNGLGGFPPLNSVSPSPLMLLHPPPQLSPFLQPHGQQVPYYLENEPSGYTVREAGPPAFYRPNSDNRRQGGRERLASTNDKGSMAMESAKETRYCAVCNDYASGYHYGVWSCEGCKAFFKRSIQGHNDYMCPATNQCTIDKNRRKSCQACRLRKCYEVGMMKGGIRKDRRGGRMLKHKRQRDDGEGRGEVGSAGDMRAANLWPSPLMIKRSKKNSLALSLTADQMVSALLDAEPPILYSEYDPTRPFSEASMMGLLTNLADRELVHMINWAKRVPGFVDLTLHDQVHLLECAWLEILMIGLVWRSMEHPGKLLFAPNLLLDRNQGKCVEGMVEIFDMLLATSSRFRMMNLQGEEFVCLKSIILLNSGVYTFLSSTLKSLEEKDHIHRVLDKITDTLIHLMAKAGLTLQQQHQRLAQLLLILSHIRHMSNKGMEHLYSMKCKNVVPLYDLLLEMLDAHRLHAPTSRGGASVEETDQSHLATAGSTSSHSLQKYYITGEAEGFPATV

Prothrombin = Prothrombin (Homo sapiens, UniProt P00734); experiment: Thrombin 1536 HTS Dose Response Confirmation. [Related pubchem assays: 1046 (Thrombin 1536 HTS; hits were confirmed in this assay)]; assay type: functional

T2 sequence (Q92731 whole entry): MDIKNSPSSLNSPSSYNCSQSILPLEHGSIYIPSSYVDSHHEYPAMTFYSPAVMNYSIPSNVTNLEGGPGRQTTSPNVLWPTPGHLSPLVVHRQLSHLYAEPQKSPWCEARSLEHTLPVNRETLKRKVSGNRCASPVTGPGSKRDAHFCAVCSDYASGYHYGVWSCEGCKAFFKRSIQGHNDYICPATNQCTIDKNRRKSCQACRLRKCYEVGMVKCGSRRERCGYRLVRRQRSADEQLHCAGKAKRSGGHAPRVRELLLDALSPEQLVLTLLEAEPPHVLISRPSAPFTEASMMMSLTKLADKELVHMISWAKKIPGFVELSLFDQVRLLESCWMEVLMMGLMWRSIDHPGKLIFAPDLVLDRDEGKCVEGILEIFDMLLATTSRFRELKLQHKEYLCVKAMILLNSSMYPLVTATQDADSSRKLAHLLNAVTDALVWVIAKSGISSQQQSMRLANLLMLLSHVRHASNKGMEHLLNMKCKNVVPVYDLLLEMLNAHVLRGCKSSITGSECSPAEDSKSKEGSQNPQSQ
Large T antigen, sequence (P03070 whole entry): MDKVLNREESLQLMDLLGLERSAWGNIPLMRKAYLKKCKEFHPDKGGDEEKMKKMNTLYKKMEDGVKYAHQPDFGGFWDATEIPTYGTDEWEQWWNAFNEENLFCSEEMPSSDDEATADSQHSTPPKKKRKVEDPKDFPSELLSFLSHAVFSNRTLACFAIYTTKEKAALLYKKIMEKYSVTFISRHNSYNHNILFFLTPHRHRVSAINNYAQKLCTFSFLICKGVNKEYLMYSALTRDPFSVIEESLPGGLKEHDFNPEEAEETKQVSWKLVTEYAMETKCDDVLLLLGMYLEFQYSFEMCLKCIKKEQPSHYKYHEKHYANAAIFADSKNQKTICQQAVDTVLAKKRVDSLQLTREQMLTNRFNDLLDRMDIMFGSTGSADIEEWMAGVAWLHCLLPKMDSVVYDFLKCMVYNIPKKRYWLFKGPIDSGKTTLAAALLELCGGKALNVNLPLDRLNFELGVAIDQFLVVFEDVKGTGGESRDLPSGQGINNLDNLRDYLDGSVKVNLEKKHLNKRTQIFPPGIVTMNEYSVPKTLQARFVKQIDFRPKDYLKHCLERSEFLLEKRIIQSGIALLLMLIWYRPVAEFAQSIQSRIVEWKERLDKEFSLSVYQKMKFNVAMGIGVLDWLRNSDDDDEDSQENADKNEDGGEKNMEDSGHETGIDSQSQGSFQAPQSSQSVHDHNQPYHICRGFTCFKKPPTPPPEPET

EC50 [1]: > 67.5 µM (inactive)
Compound: CN(C)c1ccc(C(C#N)c2ccccc2)nn1 (stereo unspecified)

Compound: CC/C(=N/Nc1ccccc1)c1cnnc(-c2ccccc2)n1
EC50 [2]: 60.2 µM (active) | IC50 (Estrogen receptor beta [3]): 6.12 µM (not active) | IC50 (Estrogen receptor beta [4]): > 50 µM (not active) | EC50 [5]: 70.6 µM (active)

IC50 (Estrogen receptor beta [4]): > 50 µM (not active)
Compound: O=C(CCc1ccccc1)Nc1nnc(-c2cccs2)o1

IC50 (Large T antigen): 8.54 µM (active) | EC50 [1]: > 67.5 µM (inactive)
Compound: CN(C)c1ccc(Nc2nc(-c3cccnc3)cs2)cc1

Compound: O=C(NC1=C(N2CCOCC2)C(=O)c2ccccc2C1=O)c1ccc(Br)cc1
AC50 [6]: > 70 µM (inactive) | AC50 [7]: 28.9 µM (active)

Compound: CCOC(=O)c1ccc2[nH]c3c(c2c1)CN(C)CC3
IC50 (cells [8]): 1.22 µM (active)

EC50 [1]: > 67.5 µM (inactive)
Compound: Clc1ccc(CSc2nc3cc[nH]cc-3n2)cc1

Compound: Cc1ccc(C(=O)c2ccc(N3CCN(C)CC3)c([N+](=O)[O-])c2)cc1
EC50 [9]: > 150 µM (not active) | EC50 (BJ [10]): > 150 µM (not active) | EC50 (BJ [11]): > 150 µM (not active) | EC50 (BJ [12]): > 150 µM (not active)

Compound: Cc1ccccc1N=Nc1c(O)[nH]c2ccccc12
EC50 [13]: > 67.5 µM (inactive) | EC50 (cells [14]): > 67.5 µM (inactive)

Compound: Oc1ccc(Cl)cc1/C=N/c1ccc2c3c(cccc13)CC2
IC50 [15]: > 50 µM (not active) | IC50 (H9c2): 9.38 µM (active) | IC50 [16]: 12.9 µM (active)

Compound: Fc1cccc(Cl)c1/C=N/Nc1ccccn1
EC50 [13]: > 67.6 µM (inactive) | EC50 (cells [14]): > 67.6 µM (inactive)

Compound: COc1ccc(C(=O)c2cc([N+](=O)[O-])ccc2N2CCN(C)CC2)cc1
EC50 [9]: 5.04 µM (active) | EC50 (BJ [10]): 4.39 µM (active) | EC50 (BJ [11]): 32.9 µM (active) | EC50 (BJ [12]): 9.22 µM (inconclusive)

IC50 (Estrogen receptor beta [3]): 78.6 µM (not active) | IC50 (Estrogen receptor beta [4]): > 50 µM (not active) | IC50 (Estrogen receptor): > 50 µM (not active)
Compound: O=S(=O)(Nc1nccs1)c1cc(Cl)ccc1Cl

IC50 (Prothrombin): 1.37 µM (active)
Compound: Nc1nc(-c2ccc(Cl)cc2)nn1C(=O)c1cccnc1
